Tests used:
Test in all cases: relative viability (nuclei count vs DMSO), 5 days (fraction); higher = more cells survive
Idelalisib + Linsitinib = compound: CC[C@H](Nc1ncnc2[nH]cnc12)c1nc2cccc(F)c2c(=O)n1-c1ccccc1 [Idelalisib] + C[C@]1(O)C[C@@H](c2nc(-c3ccc4ccc(-c5ccccc5)nc4c3)c3c(N)nccn32)C1 [Linsitinib] (partner 1 µM)
Outline: (§1)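 Lung cancer cell lines, seeded in 1536-well plates, were treated the following day by pin tool with a single drug or with five library-drug doses (not always all listed) in √10 steps on top of a fixed anchor-drug dose. Cells were fixed and nuclei stained in one step after 5 days, and nuclei were counted. Relative viability is the nuclei count for treated wells divided by that for vehicle wells, reported as medians of duplicate plates.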

Pemetrexed + Tozasertib = compound: Nc1nc2[nH]cc(CCc3ccc(C(=O)N[C@@H](CCC(=O)O)C(=O)O)cc3)c2c(=O)[nH]1 [Pemetrexed] + Cc1cc(Nc2cc(N3CCN(C)CC3)nc(Sc3ccc(NC(=O)C4CC4)cc3)n2)n[nH]1 [Tozasertib] (partner 0.1 µM)
Outline: as §1

Idelalisib + Alpelisib = compound: CC[C@H](Nc1ncnc2[nH]cnc12)c1nc2cccc(F)c2c(=O)n1-c1ccccc1 [Idelalisib] + Cc1nc(NC(=O)N2CCC[C@H]2C(N)=O)sc1-c1ccnc(C(C)(C)C(F)(F)F)c1 [Alpelisib] (partner 2 µM)
Outline: as §1

Pemetrexed + Navitoclax = compound: Nc1nc2[nH]cc(CCc3ccc(C(=O)N[C@@H](CCC(=O)O)C(=O)O)cc3)c2c(=O)[nH]1 [Pemetrexed] + CC1(C)CCC(c2ccc(Cl)cc2)=C(CN2CCN(c3ccc(C(=O)NS(=O)(=O)c4ccc(N[C@H](CCN5CCOCC5)CSc5ccccc5)c(S(=O)(=O)C(F)(F)F)c4)cc3)CC2)C1 [Navitoclax] (partner 0.5 µM)
Outline: as §1

Cell Line	relative viability (Idelalisib + Linsitinib; first compound 0.04 µM)	relative viability (Idelalisib + Linsitinib; first compound 0.1265 µM)	relative viability (Idelalisib + Linsitinib; first compound 0.4 µM)	relative viability (Idelalisib + Linsitinib; first compound 1.265 µM)	relative viability (Idelalisib + Linsitinib; first compound 4 µM)	relative viability (Pemetrexed + Tozasertib; first compound 0.002 µM)	relative viability (Pemetrexed + Tozasertib; first compound 0.006325 µM)	relative viability (Pemetrexed + Tozasertib; first compound 0.02 µM)	relative viability (Pemetrexed + Tozasertib; first compound 0.06325 µM)	relative viability (Pemetrexed + Tozasertib; first compound 0.2 µM)	relative viability (Idelalisib + Alpelisib; first compound 0.04 µM)	relative viability (Idelalisib + Alpelisib; first compound 0.1265 µM)	relative viability (Idelalisib + Alpelisib; first compound 0.4 µM)	relative viability (Idelalisib + Alpelisib; first compound 1.265 µM)	relative viability (Idelalisib + Alpelisib; first compound 4 µM)	relative viability (Pemetrexed + Navitoclax; first compound 0.002 µM)	relative viability (Pemetrexed + Navitoclax; first compound 0.006325 µM)	relative viability (Pemetrexed + Navitoclax; first compound 0.02 µM)	relative viability (Pemetrexed + Navitoclax; first compound 0.06325 µM)	relative viability (Pemetrexed + Navitoclax; first compound 0.2 µM)
NCI-H661	0.588	0.551	0.373	0.389	0.458	0.368	0.325	0.349	0.348	0.351	0.708	0.642	0.637	0.718	0.813	–	–	–	–	–
CAL-12T	0.823	0.906	0.733	0.822	0.584	0.337	0.276	0.329	0.286	0.277	1.34	1.18	0.898	0.966	0.971	1.17	1.05	1.14	1.3	1.22
HARA	1.21	0.911	0.869	0.887	0.936	0.13	0.0932	0.123	0.0911	0.0832	1.03	0.843	0.855	0.754	0.751	1	1.1	1.17	1.08	0.381
NCI-H596	1.07	1.06	0.899	1.19	1.03	0.873	0.858	0.887	0.754	0.491	0.597	0.397	0.483	0.467	0.364	0.98	0.811	0.828	0.898	0.419
LU99A	0.473	0.528	0.489	0.43	0.446	0.259	0.325	0.338	0.272	0.249	0.665	0.479	0.36	0.554	0.45	0.73	0.75	0.774	0.87	0.748
LC-2-ad	0.966	0.848	0.805	0.75	0.719	0.378	0.45	0.43	0.296	0.259	0.887	0.683	0.959	0.893	0.637	0.304	0.437	0.363	0.159	0.162
NCI-H1650	–	–	–	–	–	0.388	0.353	0.47	0.304	0.298	–	–	–	–	–	1.08	1.11	1.37	1.15	0.632
NCI-H1915	1.19	1.15	1.04	1.17	1.07	0.403	0.439	0.45	0.417	0.425	1.14	1.11	1.03	1.11	1.04	0.773	0.757	0.772	0.764	0.783
ABC-1	0.765	0.698	0.827	0.651	0.689	0.163	0.172	0.172	0.191	0.167	0.956	1.22	1.08	1.13	0.807	–	–	–	–	–
HCC-44	0.662	0.65	0.596	0.476	0.584	0.903	0.945	1.15	0.853	0.372	0.831	0.812	0.602	0.577	0.638	0.864	0.836	1.02	0.929	0.866
HCC-78	0.254	0.514	0.346	0.45	0.226	0.312	0.32	0.378	0.308	0.259	0.269	0.291	0.246	0.287	0.207	–	0.646	0.547	0.242	0.207
LXF-289	1	0.978	0.938	1.07	0.978	0.165	0.19	0.194	0.163	0.183	0.997	1.05	0.996	1.01	0.993	0.881	1	0.994	0.993	0.929
201T	1.09	1.02	0.937	0.933	0.926	0.833	0.97	0.971	0.976	0.871	0.974	0.987	0.937	0.963	0.872	1.11	1.2	1.24	1.26	1.18
NCI-H1734	0.944	0.814	0.765	0.791	0.597	0.249	0.221	0.268	0.284	0.248	0.695	0.7	0.574	0.592	0.443	0.826	0.817	0.933	0.813	0.656
NCI-H1623	–	–	–	–	–	0.409	0.357	0.425	0.433	0.434	–	–	–	–	–	–	–	–	–	–
NCI-H2126	0.71	0.715	0.685	0.698	0.625	0.711	0.845	0.875	0.775	0.643	0.739	0.739	0.611	0.675	0.6	0.828	0.827	0.882	0.833	0.82
LOU-NH91	0.942	0.88	0.904	0.683	0.864	0.656	0.676	0.706	0.54	0.366	0.762	0.705	0.634	0.59	0.641	0.629	0.727	0.708	0.431	0.416
NCI-H1792	0.242	0.498	0.508	0.443	0.461	–	–	–	–	–	0.315	0.662	0.665	0.577	0.581	0.59	0.823	0.579	0.564	0.585
NCI-H1651	0.982	0.903	0.789	0.923	0.714	0.684	0.645	0.703	0.658	0.644	0.921	0.864	0.907	0.964	0.845	0.906	0.977	1.01	0.938	0.968
A549	0.53	0.544	0.416	0.589	0.446	–	–	–	–	–	0.873	0.812	0.505	0.51	0.548	1.11	1.13	1.25	1.22	1.12

Cell Line	relative viability (Idelalisib + Linsitinib; first compound 0.04 µM)	relative viability (Idelalisib + Linsitinib; first compound 0.1265 µM)	relative viability (Idelalisib + Linsitinib; first compound 0.4 µM)	relative viability (Idelalisib + Linsitinib; first compound 1.265 µM)	relative viability (Idelalisib + Linsitinib; first compound 4 µM)	relative viability (Pemetrexed + Tozasertib; first compound 0.002 µM)	relative viability (Pemetrexed + Tozasertib; first compound 0.006325 µM)	relative viability (Pemetrexed + Tozasertib; first compound 0.02 µM)	relative viability (Pemetrexed + Tozasertib; first compound 0.06325 µM)	relative viability (Pemetrexed + Tozasertib; first compound 0.2 µM)	relative viability (Idelalisib + Alpelisib; first compound 0.04 µM)	relative viability (Idelalisib + Alpelisib; first compound 0.1265 µM)	relative viability (Idelalisib + Alpelisib; first compound 0.4 µM)	relative viability (Idelalisib + Alpelisib; first compound 1.265 µM)	relative viability (Idelalisib + Alpelisib; first compound 4 µM)	relative viability (Pemetrexed + Navitoclax; first compound 0.002 µM)	relative viability (Pemetrexed + Navitoclax; first compound 0.006325 µM)	relative viability (Pemetrexed + Navitoclax; first compound 0.02 µM)	relative viability (Pemetrexed + Navitoclax; first compound 0.06325 µM)	relative viability (Pemetrexed + Navitoclax; first compound 0.2 µM)
HCC-366	0.619	0.598	0.444	0.578	0.253	0.0686	0.0859	0.205	0.126	0.124	0.429	0.4	0.28	0.245	0.183	1.07	0.95	0.974	1.02	0.963
EKVX	0.832	0.97	0.849	0.724	0.758	0.373	0.398	0.37	0.367	0.263	0.835	0.896	0.728	0.625	0.53	0.913	0.904	0.961	0.928	0.627
NCI-H1993	0.824	0.673	0.662	0.756	0.66	0.68	0.46	0.523	0.615	0.506	0.691	0.592	0.679	0.665	0.667	0.808	0.832	0.859	0.917	0.804
NCI-H522	–	–	–	–	–	0.544	0.518	0.582	0.56	0.593	–	–	–	–	–	–	–	–	–	–
NCI-H1703	1.31	0.976	0.669	1.2	0.474	–	–	–	–	–	0.37	0.304	0.273	0.272	0.207	1.04	0.967	1.86	1.24	1.09
NCI-H23	0.693	0.592	0.436	0.499	0.474	0.311	0.36	0.514	0.347	0.395	0.737	0.635	0.357	0.727	0.515	0.808	0.756	1.07	0.788	0.858
HCC-827	0.958	0.961	0.96	0.885	0.965	0.377	0.414	0.441	0.44	0.335	0.977	0.968	0.92	0.894	0.506	0.926	0.964	1.13	1.02	0.908
IA-LM	0.426	0.83	0.709	0.541	0.404	–	–	–	–	–	0.787	0.754	0.884	0.72	0.84	0.773	0.798	0.856	0.711	0.483
SW 900	–	–	–	–	–	0.5	0.535	0.678	0.495	0.466	–	–	–	–	–	–	–	–	–	–
NCI-H1648	–	–	–	–	–	0.531	0.486	0.595	–	0.542	–	–	–	–	–	–	–	–	–	–
NCI-H358	0.805	0.794	0.638	0.64	0.637	0.116	0.141	0.108	0.102	0.0813	1.03	0.894	0.857	0.94	0.719	–	–	–	–	–
NCI-H1563	1.16	1.29	1.07	1.15	0.832	–	–	–	–	–	0.839	1.03	0.807	0.825	0.669	–	–	–	–	–
LCLC-103H	1.11	0.948	0.886	1.05	0.704	0.451	0.366	0.515	0.443	0.443	1	0.914	0.744	0.868	0.926	–	–	–	–	–
NCI-H2342	–	–	–	–	–	0.454	0.497	0.573	0.589	0.486	–	–	–	–	–	–	–	–	–	–
ChaGo-K-1	–	–	–	–	–	0.24	0.218	0.25	0.212	0.176	–	–	–	–	–	1.03	0.969	0.914	0.296	0.306
NCI-H2170	–	–	–	–	–	0.714	0.644	0.636	0.829	0.602	0.795	0.854	0.708	0.688	0.547	0.538	0.587	0.663	0.662	0.5
Calu-6	1.06	1	0.889	0.942	0.93	–	–	–	–	–	0.954	1.03	0.909	0.99	0.892	0.786	0.876	0.897	0.872	0.782
NCI-H1299	1.03	1.07	0.978	0.959	0.928	–	–	–	–	–	1.02	1.03	1.02	1.03	1.15	1.05	0.981	1.1	1.04	1
EBC-1	0.762	1.03	0.907	0.84	0.637	–	–	–	–	–	0.961	0.941	0.684	0.658	0.349	0.396	0.42	0.474	0.397	0.507
NCI-H650	0.934	0.981	0.789	0.798	0.775	0.666	0.691	0.826	0.734	0.74	1.27	1.01	0.961	1.46	0.962	–	–	–	–	–

Reference: the supplement of paper PMC10307832
